Like-named read-outs stand apart in the source and are kept apart here.
Experiments:
[1] = (iii) Acute toxicity (LD50) in mice; conditions: mouse, in vivo, mortality within 7 days
Method: (iii) Male dd-strain mice were used. Each group was composed of 10 animals. The test compound was administered intraperitoneally or orally to the animals. The LD50 (mg/kg) was calculated from the mortality within 7 days after administration of the test compound.

[2] = tested on: Cholesterol and triglyceride in the serum; test: (i) Serum cholesterol and triglyceride reduction in rats fed a diet containing 1% of cholesterol; format: in vivo, Male Sprague-Dowley rats; conditions: rats on diet containing 1% cholesterol, test compound 0.1% (W/W) in diet, oral, 5 days, control = 100%
Method: (§1) (i) Male Sprague-Dowley rats were used. Each group was composed of 8 animals. Rats were fed a diet containing 1% of cholesterol. The test compound was orally administered to the animal by feeding with the diet to which the compound was blended in a ratio of 0.1% (W/W) for 5 days. Cholesterol and triglyceride in the serum were determined by the standard methods using an autoanalyzer (Technicon Inc.). The levels in the control group were considered as 100% and the reduction rate in the test group was calculated.

[3] = tested on: blood cholesterol; test: (iv) Blood cholesterol reduction in hyperlipemic monkeys fed a diet containing 0.25% cholesterol; format: in vivo; conditions: hyperlipemic Rhesus monkeys, diet with 0.25% cholesterol; diet containing 0.7% (W/W) test compound, 15 days; vs control group
[4] = tested on: Cholesterol and triglyceride in the serum; test: (ii) Serum cholesterol and triglyceride reduction in rats fed a conventional diet; format: in vivo, Male Sprague-Dowley rats; conditions: rats on conventional diet, test compound 0.1% (W/W) in diet, oral, 5 days, control = 100%
Method: as §1, with “calculated. (ii) With the exception that rats were fed a conventional diet instead of the diet containing 1% cholesterol, a test was carried out in the same condition (rats used, administration method, period, concentration of test compound and cholesterol and triglyceride determination) as in the above test (i).” for “calculated.”

[5] = ip, intraperitoneal, read-out: LD50 Intraperitoneal administration
[6] = oral, read-out: LD50 Oral administration

Row | Structure (SMILES) | LD50 at 168 h [1, 5] | LD50 at 168 h [1, 6] | Reduction Rate (%) Cholesterol [2] | Reduction Rate (%) Triglyceride [2] | reduction activity of blood cholesterol [3] | Reduction Rate (%) Cholesterol [4] | Reduction Rate (%) Triglyceride [4]
1 | CCCCCCCCCCCCCCCCNc1ccc(-c2nc(CC(=O)[O-])c(OCC)o2)cc1.[Na+] | > 1000 mg/kg | > 2500 mg/kg | 31% | 28% | outstanding reduction activity | 26% | 44%
2 | CCCCCCCCCCCCCCCCOc1ccc(-c2nc(CC(=O)O)c(Oc3ccc(Cl)cc3)o2)cc1 [Compound C, 2-(4-n-Hexadecyloxyphenyl)-5-(4-chlorophenoxy)-4-oxazoleacetic acid] |  |  | 31% | 37% |  |  | 
3 | CCOC(=O)C(C)(C)Oc1ccc(Cl)cc1 [Compound E, Clofibrate, reference compound] | > 1000 mg/kg | > 1450 mg/kg | 22% | 23% |  | 23% | 34%
4 | CCOc1oc(-c2ccc(OCc3ccc(Cl)cc3)cc2)nc1CC(=O)O [Compound D, 2-[4-(4-Chlorobenzyloxy)phenyl]-5-ethoxy-4-oxazoleacetic acid] |  |  | 37% | 42% |  | 19% | 53%
5 | CCCCCCCCCCCCCCCCOc1ccc(-c2nc(CC(=O)O)c(OCC)o2)cc1 [Compound A, 2-(4-n-Hexadecyloxyphenyl)-5-ethoxy-4-oxazoleacetic acid] | > 1000 mg/kg | > 2500 mg/kg | 21% | 35% | outstanding reduction activity | 29% | 44%

— patent US4365066A, “2(4-n-Hexadecyl amino or oxy phenyl) 5 ethoxy oxazoleacetic acid derivatives” (Yoshitomi Pharmaceutical Industries Ltd., priority 1979, dated 1982)
